Results from patent publication US20220170911A1, “CELL CONSTRUCT AND CELL CONSTRUCT PRODUCTION METHOD” (priority 2019, published 2022).

Experiments:
Assay type in all cases: cell-based, human
[1] = test system: cell structure including vascular endothelial cells and tissue product including no vascular endothelial cell; assay: Evaluation of effect of uptake inhibitor for fatty acid (BODIPY-modified fatty acid fluorescence); settings: 100 ng/mL TNFα in DMEM with 4 μM BODIPY-modified fatty acid; day 14; 0, 5, 30, 60 minutes; with and without vascular endothelial cells; control without TNFα defined as 100%; FIG. 18
Procedure: A cell structure including vascular endothelial cells and a tissue product including no vascular endothelial cell were produced in the same manner as in Test Example 10, and evaluation was carried out with the cell structure and tissue product on day 14 after the beginning of formation thereof sCMF produced by using a sponge fragment of porcine skin-derived collagen I was used.
Into DMEM culture medium containing 4 μM BODIPY-modified fatty acid in place of NBD-modified glucose in (Evaluation of Glucose Uptake) of Test Example 10, 100 ng/mL TNFα as an uptake inhibitor for fatty acid was introduced. The cell structure including vascular endothelial cells and the tissue product including no vascular endothelial cell were each incubated, and fluorescence measurement was carried out after 0 minutes, 5 minutes, 30 minutes, and 60 minutes in the same manner as in Test Example 10. The number of samples for each treatment was 5 (n=5), and fatty acid uptake in the same control culture medium as in Test Example 10, which contained no TNFα, was defined as 100%.

[2] = test system: tissue product including no vascular endothelial cell; assay: Evaluation of glucose uptake (NBD-modified glucose fluorescence) with uptake inhibitor and promoter; settings: 125 μM apigenin and/or 10 μg/mL insulin in DMEM with 0.1 mg/mL NBD-modified glucose; day 7 tissue product; 20-135 minutes; control medium defined as 100%; FIG. 16/17(a)
Procedure: A cell structure provided with a vascular network was produced with the same procedure as in Test Example 2, except that 6500 cells of mature adipocytes, 5500 cells of adipose stem cells, 2750 cells of vascular endothelial cells, 0.025 mg of the defibered collagen component (sCMF), 0.015 mg of fibrinogen, and 0.007 U of thrombin were used per tissue. The materials were prepared for 96 wells all at once to afford a gel, which was seeded on each well of a 96-well plate. […] The cell structures were incubated, and fluorescence measurement was carried out after 10 minutes, 30 minutes, 60 minutes, 120 minutes, and 150 minutes. Before the measurement at each timing, the culture medium for a cell structure to be subjected to measurement was substituted with 300 μL of PBS buffer, and the fluorescence was measured with a plate reader (Synergy HTX, manufactured by BioTek Instruments, Inc.) to determine the cumulative value of fluorescence intensity in the image. […] The tissue product was incubated, and fluorescence measurement was carried out after 20 minutes, 45 minutes, 70 minutes, 90 minutes, and 135 minutes in the same manner as in Test Example 10. […]

[3] = test system: tissue product including no vascular endothelial cell; assay: Evaluation of fatty acid uptake (BODIPY-modified fatty acid fluorescence) with uptake promoter; settings: 10 μg/mL insulin in DMEM with 4 μM BODIPY-modified fatty acid; day 7 tissue product; 5, 30, 60 minutes; control without insulin defined as 100%; FIG. 17(b)
Procedure: A tissue product including no vascular endothelial cell was produced in the same manner as in Test Example 10, and evaluation was carried out with the tissue product on day 7 after the beginning of formation thereof sCMF produced by using a mixture of a sponge fragment of porcine skin-derived collagen I and a sponge fragment of porcine skin-derived collagen III was used.
A tissue product was incubated in the same manner as in Test Example 10, except that, in place of NBD-modified glucose in Test Example 10, 4 μM BODIPY-modified fatty acid (Invitrogen (R) BODIPY (R) 500/510 Cl, C12 (4,4-Difluoro-5-Methyl-4-Bora-3a,4a-Diaza-s-Indacene-3-Dodecanoi c Acid), Thermo Fisher Scientific) was added to DMEM culture medium, and fluorescence measurement was carried out after 5 minute, 30 minutes, and 60 minutes. Further, 10 μg/mL insulin was added to the DMEM culture medium containing 4 μM BODIPY-modified fatty acid, and fluorescence measurement was carried out in the same manner.
The number of samples for each treatment was 5 (n=5), and fatty acid uptake in the same control culture medium as in Test Example 10, which contained no insulin, was defined as 100%.

[4] = test system: tissue product including no vascular endothelial cell; assay: Evaluation of release of glucose and fatty acid taken up, with release promoter; settings: 2 mM isoproterenol, then 30 minutes incubation, day 14 tissue product
Procedure: A tissue product was produced in the same manner as for the cell structure in Test Example 10, except that no vascular endothelial cell was included, and evaluation was carried out with the tissue product on day 14 after the beginning of formation thereof.
In order to measure the amount of release of glucose once taken up, incubation was performed on DMEM culture medium supplemented with 0.1 mg/mL NBD-modified glucose as in Test Example 10 for 60 minutes, and then the culture medium was substituted again with 300 μL of DMEM culture medium supplemented with NBD-modified glucose, or with 300 μL of DMEM culture medium supplemented with 2 mM isoproterenol and NBD-modified glucose. Thereafter, incubation was performed for 30 minutes to allow glucose to be released from the cellular tissue, and fluorescence measurement was carried out. […]
The number of samples for each treatment was 5 […], fluorescence intensity for the tissue product with the culture medium containing no isoproterenol was defined as 100%, and what % of the amount of uptake was released was determined by comparing with fluorescence intensity for the tissue product with the culture medium containing isoproterenol. […]

TNFα
amount of uptake of fatty acid [1]: reduced

Insulin from bovine pancreas
amount of uptake of glucose [2]: increased
amount of fatty acid uptake [3]: promoted

CC(C)NCC(O)c1ccc(O)c(O)c1 (stereo not drawn) [isoproterenol]
release of fatty acid taken up ([4]; 60 minutes uptake of BODIPY-modified fatty acid, FIG. 19(b)): promoted
release of glucose taken up ([4]; 60 minutes uptake of NBD-modified glucose, FIG. 19(a)): promoted

O=c1cc(-c2ccc(O)cc2)oc2cc(O)cc(O)c12 [apigenin]
amount of uptake of glucose [2]: reduced
